# Where two headings read alike, the source gives them in different places.
# Columns and labels:
# [1] = tested on: NCI-H226
# [2] = tested on: ACHN
# [3] = tested on: SF-539
# [4] = tested on: MDA-MB-468
# [5] = tested on: KM12
# [6] = tested on: SN12C
# [7] = tested on: COLO 205
# [8] = tested on: IGROV1
# [9] = tested on: DU-145
# [10] = tested on: AML 052308 cells; test: cells; settings: read-out: LC50
# Excerpt: Derivatives were screened for antileukemic activity against AML cells in culture (See FIGS. 1-7).
# [11] = tested on: OVCAR-4; test: panel of 60 human tumor cell lines, growth inhibition (Ovarian Cancer); assay type: cell-based; settings: for GI50 / IC (TGI) / CC50: Homo sapiens; for CC50: read-out: LC50 (the source's name)
# [12] = tested on: OVCAR-3
# [13] = tested on: HCT-116
# [14] = tested on: RPMI-8226
# [15] = OVCAR-4, Log10 Concentration −4.0
# [16] = OVCAR-4, Log10 Concentration −5.0
# [17] = OVCAR-4, Log10 Concentration −6.0
# [18] = OVCAR-4, Log10 Concentration −7.0
# [19] = OVCAR-4, Log10 Concentration −8.0
Compound,CC50 [1],CC50 [2],CC50 [3],CC50 [4],CC50 [5],CC50 [6],CC50 [7],CC50 [8],CC50 [9],"GI50 ([11]; OVCAR-4, NCI five dose)","IC (TGI) ([11]; OVCAR-4, NCI five dose)","CC50 ([11]; OVCAR-4, NCI five dose)",CC50 [12],other results
C=C1C(=O)O[C@H]2[C@H]1CC/C(COC(=O)NCCN1CCCCC1)=C\CC[C@@]1(C)O[C@@H]21 [JVM 2-13],> 100 µM,45.6 µM,48.4 µM,28.5 µM,61.6 µM,58.5 µM,7.75 µM,81.2 µM,42 µM,,,,,
C=C1C(=O)O[C@H]2[C@H]1CC/C(COC(=O)OCCCN1CCCCC1)=C\CC[C@@]1(C)O[C@@H]21 [JVM 2-26],,,,,,,,,,,,,,CC50 [10]: 5 µM; GI50 ([11]; OVCAR-4): 2.13 µM; IC (TGI) ([11]; OVCAR-4): 11.6 µM; CC50 ([11]; OVCAR-4): 38.6 µM
C=C1C(=O)O[C@H]2[C@H]1CC/C(COC(=O)NCCCCCCO)=C\CC[C@@]1(C)O[C@@H]21 [JVM 2-31],,,,,,,,,,4.01 µM,19.4 µM,65.1 µM,,
C=C1C(=O)O[C@H]2[C@H]1CC/C(COC(=O)OCCN(C)C)=C\CC[C@@]1(C)O[C@@H]21 [JVM 2-35],,,,,,,,,,5.04 µM,18.6 µM,44.6 µM,,
C=C1C(=O)O[C@H]2[C@H]1CC/C(COC(=O)OC)=C\CC[C@@]1(C)O[C@@H]21 [JVM 2-40],,,,,,,,,,3.76 µM,18.7 µM,64.1 µM,,
C=C1C(=O)O[C@H]2[C@H]1CC/C(COC(=O)N1CCN(C)CC1)=C\CC[C@@]1(C)O[C@@H]21 [JVM 2-44],> 100 µM,52.6 µM,55.1 µM,48.7 µM,68.9 µM,69.7 µM,64.8 µM,76 µM,48.7 µM,,,,42.3 µM,CC50 [13]: 48 µM
C=C1C(=O)O[C@H]2[C@H]1CC/C(COC(=O)NCCO)=C\CC[C@@]1(C)O[C@@H]21 [JVM 2-50],> 100 µM,71.1 µM,56.2 µM,49.1 µM,,> 100 µM,50.7 µM,> 100 µM,52.8 µM,,,,47.3 µM,CC50 [14]: > 100 µM
C=C1C(=O)O[C@H]2[C@H]1CC/C(COC(=O)NC)=C\CC[C@@]1(C)O[C@@H]21 [JVM 2-57],96.1 µM,43.3 µM,42.9 µM,49 µM,55.9 µM,78.1 µM,,77 µM,39.3 µM,,,,34.3 µM,CC50 [14]: 90.3 µM; CC50 [13]: 33.6 µM
C=C1C(=O)O[C@H]2[C@H]1CC/C(COC(=O)N1CCC(F)(F)CC1)=C\CC[C@@]1(C)O[C@@H]21 [JVM 2-66],10.9 µM,,12.3 µM,11.5 µM,54.5 µM,37.7 µM,8.44 µM,59.7 µM,28.9 µM,,,,9.62 µM,CC50 [14]: > 100 µM; CC50 [13]: 7.75 µM
C=C1C(=O)O[C@H]2[C@H]1CC/C(COC(=O)CCC(=O)N1CCC(C)CC1)=C\CC[C@@]1(C)O[C@@H]21 [JVM 2-70],76.1 µM,43.5 µM,,,56.6 µM,51.9 µM,31.9 µM,94 µM,45.9 µM,,,,32.5 µM,CC50 [14]: > 100 µM; CC50 [13]: 11.9 µM
"C=C1C(=O)O[C@H]2[C@H]1CC/C(COC(=O)NCCN1CCOCC1)=C\CC[C@@]1(C)O[C@@H]21 [JVM 57, ((1aR,7aS,10aS,10bS,E)-1a-methyl-8-methylene-9-oxo-1a,2,3,6,7,7a,8,9,10a,10b-decahydrooxireno[2′,3′:9,10]-cyclodeca[1,2-b]furan-5-yl)-methyl(2-morpholinoethyl)carbamate]",,,,,,,,,,,,,,GI50 ([11]; OVCAR-4): 10.1 µM; IC (TGI) ([11]; OVCAR-4): 25.3 µM; CC50 ([11]; OVCAR-4): 63.4 µM
"C=C1C(=O)O[C@H]2[C@H]1CC/C(COC(=O)NCCN1CCCC1)=C\CC[C@@]1(C)O[C@@H]21 [JVM 59, ((1aR,7aS,10aS,10bS,E)-1a-methyl-8-methylene-9-oxo-1a,2,3,6,7,7a,8,9,10a,10b-decahydrooxireno[2′,3′:9,10]cyclodeca[1,2-b]furan-5-yl)methyl-(2-(pyrrolidin-1-yl)ethyl)carbamate]",,,,,,,,,,,,,,"GI50 ([11]; OVCAR-4, five dose): 10.4 µM; IC (TGI) ([11]; OVCAR-4, five dose): 24.7 µM; CC50 ([11]; OVCAR-4, five dose): 58.5 µM"
"C=C1C(=O)O[C@H]2[C@H]1CC/C(COC(=O)NCCc1ccccn1)=C\CC[C@@]1(C)O[C@@H]21 [JVM 61, ((1aR,7aS,10aS,10bS,E)-1a-methyl-8-methylene-9-oxo-1a,2,3,6,7,7a,8,9,10a,10b-decahydrooxireno[2′,3′:9,10]cyclodeca[1,2-b]furan-5-yl)methyl-(2-(pyridin-2-yl)ethyl)carbamate]",,,,,,,,,,,,,,"GI50 ([11]; OVCAR-4): 7.17 µM; IC (TGI) ([11]; OVCAR-4): 24.6 µM; CC50 ([11]; OVCAR-4): 72.3 µM; Percent Growth [11, 15]: −65%; Percent Growth [11, 16]: 42%; Percent Growth [11, 17]: 99%; Percent Growth [11, 18]: 96%; Percent Growth [11, 19]: 103%"
"C=C1C(=O)O[C@H]2[C@H]1CC/C(COC(=O)Nc1n[nH]c(SC)n1)=C\CC[C@@]1(C)O[C@@H]21 [JVM 64, ((1aR,7aS,10aS,10bS,E)-1a-methyl-8-methylene-9-oxo-1a,2,3,6,7,7a,8,9,10a,10b-decahydrooxireno[2′,3′:9,10]cyclodeca[1,2-b]furan-5-yl)methyl-(5-(methylthio)-1H-1,2,4-triazol-3-yl)carbamate]",,,,,,,,,,3.28 µM,19.3 µM,62.4 µM,,CC50 [10]: 7.4 µM
C=C1C(=O)O[C@H]2[C@H]1CC/C(COC(=S)n1ccnc1)=C\CC[C@@]1(C)O[C@@H]21 [JVM 66],,,,,,,,,,19.8 µM,90.9 µM,> 100 µM,,CC50 [10]: 2.6 µM
C=C1C(=O)O[C@H]2[C@H]1CC/C(COC(=O)CCC(=O)NCc1ccc(Cl)nc1)=C\CC[C@@]1(C)O[C@@H]21 [JVM 96],,,,,,,,,,,,,,"GI50 ([11]; OVCAR-4): 10.1 µM; IC (TGI) ([11]; OVCAR-4): 23.6 µM; CC50 ([11]; OVCAR-4): 55.2 µM; Percent Growth [11, 15]: −85%; Percent Growth [11, 16]: 51%; Percent Growth [11, 17]: 87%; Percent Growth [11, 18]: 90%; Percent Growth [11, 19]: 96%"

# Source: patent US9469650B2, “Melampomagnolide B derivatives” (BOARD OF TRUSTEES OF THE UNIVERSITY OF ARKANSAS, priority 2013, dated 2016)
